Source: article PMC3545186 (Biochemical Pharmacology, 2013)
Several values for one entry are separate records, joined by “and”; a condition that tells them apart may be missing. Equal entries are not always repeated. Numbered stars: 1 amine (or outer) side, 2 acyl side, 3 side chain; on linkers, the order of the positions; unused ones are H or OH. Bridge positions count the residues as written; N and C are the ends. Square brackets hold non-standard residues; d marks the D form. Peptide text beside a SMILES is read from it. I, II: the chains in the order shown. Actinocin(9to1) = Cc1c2oc3c(C)ccc(C(=O)[*:1])c3nc-2c(C(=O)[*:2])c(N)c1=O; NMeV = CN[C@H](C(=O)O)C(C)C; Sar = CNCC(=O)O

Experiments:
MDCKII-ABCB1 cells = experiment: Fluorescence competition assay with ABCB1 substrate doxorubicin; assay type: cell-based, canine; conditions: MDCKII-ABCB1, 1 h pre-incubation, doxorubicin 10 μM 1 h
MDCKII-ABCC1 cells = experiment: Intracellular accumulation of Act D; assay type: in vitro ADME, canine
[1] = Act D treatment; cited from earlier work
ABCG2 (BCRP) = experiment: Growth inhibition; assay type: cell-based, canine; conditions: dog, MDCKII cells transfected with human ABCG2 (BCRP)
MDCKII-ABCG2 cells = experiment: Growth inhibition; assay type: cell-based, canine; conditions: MDCKII-ABCG2, Act D alone or with KO143, p = 0.74

Cc1c2oc3c(C)ccc(C(=O)N[C@@H]4C(=O)N[C@H](C(C)C)C(=O)N5CCC[C@H]5C(=O)N(C)CC(=O)N(C)[C@@H](C(C)C)C(=O)O[C@@H]4C)c3nc-2c(C(=O)N[C@@H]2C(=O)N[C@H](C(C)C)C(=O)N3CCC[C@H]3C(=O)N(C)CC(=O)N(C)[C@@H](C(C)C)C(=O)O[C@@H]2C)c(N)c1=O [Act D, actinomycin D] (I: T[dV]P[Sar][NMeV] / II: T[dV]P[Sar][NMeV]; ester I:1-I:C, II:1-II:C; linker I:N-II:N via Actinocin(9to1))
Act D concentration required to maximally inhibit doxorubicin efflux (MDCKII-ABCB1 cells): 1 to 25 µM
increased accumulation with MK571 compared to absence of inhibitor (MDCKII-ABCC1 cells; MDCKII-ABCC1, not statistically significant): 1.2 fold
lower accumulation of Act D compared to parental cell line (MDCKII-ABCC1 cells; MDCKII-ABCC1 vs MDCKII-WT, 12 h): 2.5 fold and 2.45 fold
incidence of liver toxicities [1]: 1.7–13.5 % of cases
GI50 at 72 h (ABCG2 (BCRP)): 14 nM
difference in sensitivity vs parental cell line (MDCKII-ABCG2 cells): No difference in sensitivity
